Measurements published in PubChem BioAssay (NCI).
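Following 48 hours of exposure in 96-well plates, responses at five concentrations were used to interpolate endpoints linearly. At the TGI there is no net growth.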

What was measured:
Experiment in all cases: NCI-60 cell line screen, 48 h
786-0 renal = system: 786-0 renal
A498 renal = system: A498 renal
A549 NSCLC = system: A549 NSCLC
ACHN renal = system: ACHN renal
BT-549 breast = system: BT-549 breast
CAKI-1 renal = system: CAKI-1 renal
CCRF-CEM leukemia = system: CCRF-CEM leukemia
COLO 205 colon = system: COLO 205 colon
DU-145 prostate = system: DU-145 prostate
EKVX NSCLC = system: EKVX NSCLC
HCC-2998 colon = system: HCC-2998 colon
HCT-116 colon = system: HCT-116 colon
HCT-15 colon = system: HCT-15 colon
HOP-62 NSCLC = system: HOP-62 NSCLC
HOP-92 NSCLC = system: HOP-92 NSCLC
HT29 colon = system: HT29 colon
IGROV1 ovarian = system: IGROV1 ovarian
K-562 leukemia = system: K-562 leukemia
KM12 colon = system: KM12 colon
LOX IMVI melanoma = system: LOX IMVI melanoma
M14 melanoma = system: M14 melanoma
MALME-3M melanoma = system: MALME-3M melanoma
MCF7 breast = system: MCF7 breast
MDA-MB-231 breast = system: MDA-MB-231 breast
MDA-MB-435 = system: MDA-MB-435
MDA-N = system: MDA-N
MOLT-4 leukemia = system: MOLT-4 leukemia
NCI-H226 lung = system: NCI-H226 lung
NCI-H23 lung = system: NCI-H23 lung
NCI-H460 lung = system: NCI-H460 lung
NCI-H522 lung = system: NCI-H522 lung
NCI/ADR-RES ovarian = system: NCI/ADR-RES ovarian
OVCAR-3 ovarian = system: OVCAR-3 ovarian
OVCAR-4 ovarian = system: OVCAR-4 ovarian
OVCAR-5 ovarian = system: OVCAR-5 ovarian
OVCAR-8 ovarian = system: OVCAR-8 ovarian
PC-3 prostate = system: PC-3 prostate
RPMI-8226 leukemia = system: RPMI-8226 leukemia
RXF 393 renal = system: RXF 393 renal
SF-268 CNS = system: SF-268 CNS
SF-295 CNS = system: SF-295 CNS
SF-539 CNS = system: SF-539 CNS
SK-MEL-28 melanoma = system: SK-MEL-28 melanoma
SK-MEL-5 melanoma = system: SK-MEL-5 melanoma
SK-OV-3 ovarian = system: SK-OV-3 ovarian
SN12C renal = system: SN12C renal
SNB-19 CNS = system: SNB-19 CNS
SNB-75 CNS = system: SNB-75 CNS
SR leukemia = system: SR leukemia
SW-620 colon = system: SW-620 colon
T-47D breast = system: T-47D breast
TK-10 renal = system: TK-10 renal
U251 CNS = system: U251 CNS
UACC-257 melanoma = system: UACC-257 melanoma
UACC-62 melanoma = system: UACC-62 melanoma
UO-31 renal = system: UO-31 renal
HL-60(TB) leukemia = system: HL-60(TB) leukemia
SK-MEL-2 melanoma = system: SK-MEL-2 melanoma

Measured: TGI

O=C(CSc1nnc(SCC(=O)NN=C2CCCCC2)s1)NN=C1CCCCC1
not listed: HL-60(TB) leukemia | SK-MEL-2 melanoma
> 100 µM: all other assays above

Cc1cc2c(O)c(c1)COCc1cc(C)cc(c1O)COCc1cc(C)cc(c1O)COC2
not listed: IGROV1 ovarian | LOX IMVI melanoma | SK-MEL-5 melanoma | TK-10 renal
> 100 µM: all other assays above
